One data set addresses T1, Histone deacetylase 8 (Homo sapiens, UniProt Q9BY41).
T1 sequence (Q9BY41 whole entry): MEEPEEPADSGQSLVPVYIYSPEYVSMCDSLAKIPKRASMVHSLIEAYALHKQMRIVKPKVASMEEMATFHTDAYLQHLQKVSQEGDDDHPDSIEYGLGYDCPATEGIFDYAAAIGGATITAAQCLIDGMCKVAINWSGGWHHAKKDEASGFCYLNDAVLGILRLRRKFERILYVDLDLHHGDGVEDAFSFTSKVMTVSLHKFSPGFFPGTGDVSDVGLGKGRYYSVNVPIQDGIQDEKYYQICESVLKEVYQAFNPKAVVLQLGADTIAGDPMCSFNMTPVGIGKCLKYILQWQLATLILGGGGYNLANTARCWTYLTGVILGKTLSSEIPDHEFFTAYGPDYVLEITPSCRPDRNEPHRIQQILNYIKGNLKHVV
The data set can be described thus: Inhibition of HDAC8.

The target in the next data set is Histone deacetylase 4 (Homo sapiens, UniProt P56524). In words: Inhibition of HDAC4.
Histone deacetylase 4, sequence (P56524 whole entry): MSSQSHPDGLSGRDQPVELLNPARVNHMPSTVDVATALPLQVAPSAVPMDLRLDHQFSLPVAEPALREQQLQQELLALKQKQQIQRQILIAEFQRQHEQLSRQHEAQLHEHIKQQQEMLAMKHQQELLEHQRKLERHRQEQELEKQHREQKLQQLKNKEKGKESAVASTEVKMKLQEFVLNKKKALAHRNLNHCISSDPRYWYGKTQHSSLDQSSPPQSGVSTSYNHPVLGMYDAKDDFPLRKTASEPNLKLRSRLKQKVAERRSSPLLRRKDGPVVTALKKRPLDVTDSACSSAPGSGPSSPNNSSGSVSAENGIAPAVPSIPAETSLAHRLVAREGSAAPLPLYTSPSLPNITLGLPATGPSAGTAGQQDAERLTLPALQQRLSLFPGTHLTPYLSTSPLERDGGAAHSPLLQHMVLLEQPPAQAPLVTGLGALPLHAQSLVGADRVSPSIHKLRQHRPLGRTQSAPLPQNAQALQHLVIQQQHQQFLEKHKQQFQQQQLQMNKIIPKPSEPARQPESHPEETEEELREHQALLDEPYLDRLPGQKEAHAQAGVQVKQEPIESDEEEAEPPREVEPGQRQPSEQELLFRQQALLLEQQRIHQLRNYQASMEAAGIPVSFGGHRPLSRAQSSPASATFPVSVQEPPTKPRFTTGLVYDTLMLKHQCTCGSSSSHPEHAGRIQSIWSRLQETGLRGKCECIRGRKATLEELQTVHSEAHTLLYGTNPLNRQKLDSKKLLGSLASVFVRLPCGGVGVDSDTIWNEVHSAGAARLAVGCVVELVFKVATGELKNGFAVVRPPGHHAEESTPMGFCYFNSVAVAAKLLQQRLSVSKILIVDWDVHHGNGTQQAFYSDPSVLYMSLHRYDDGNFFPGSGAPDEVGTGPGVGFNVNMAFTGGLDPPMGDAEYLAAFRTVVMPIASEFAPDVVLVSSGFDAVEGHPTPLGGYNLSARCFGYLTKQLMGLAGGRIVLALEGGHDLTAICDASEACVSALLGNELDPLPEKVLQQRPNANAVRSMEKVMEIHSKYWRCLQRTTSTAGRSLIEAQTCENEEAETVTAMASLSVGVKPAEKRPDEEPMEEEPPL
In another data set the target is Histone deacetylase 5 (Homo sapiens, UniProt Q9UQL6). The data set can be described thus: Inhibition of HDAC5.
Histone deacetylase 5, sequence (Q9UQL6 whole entry): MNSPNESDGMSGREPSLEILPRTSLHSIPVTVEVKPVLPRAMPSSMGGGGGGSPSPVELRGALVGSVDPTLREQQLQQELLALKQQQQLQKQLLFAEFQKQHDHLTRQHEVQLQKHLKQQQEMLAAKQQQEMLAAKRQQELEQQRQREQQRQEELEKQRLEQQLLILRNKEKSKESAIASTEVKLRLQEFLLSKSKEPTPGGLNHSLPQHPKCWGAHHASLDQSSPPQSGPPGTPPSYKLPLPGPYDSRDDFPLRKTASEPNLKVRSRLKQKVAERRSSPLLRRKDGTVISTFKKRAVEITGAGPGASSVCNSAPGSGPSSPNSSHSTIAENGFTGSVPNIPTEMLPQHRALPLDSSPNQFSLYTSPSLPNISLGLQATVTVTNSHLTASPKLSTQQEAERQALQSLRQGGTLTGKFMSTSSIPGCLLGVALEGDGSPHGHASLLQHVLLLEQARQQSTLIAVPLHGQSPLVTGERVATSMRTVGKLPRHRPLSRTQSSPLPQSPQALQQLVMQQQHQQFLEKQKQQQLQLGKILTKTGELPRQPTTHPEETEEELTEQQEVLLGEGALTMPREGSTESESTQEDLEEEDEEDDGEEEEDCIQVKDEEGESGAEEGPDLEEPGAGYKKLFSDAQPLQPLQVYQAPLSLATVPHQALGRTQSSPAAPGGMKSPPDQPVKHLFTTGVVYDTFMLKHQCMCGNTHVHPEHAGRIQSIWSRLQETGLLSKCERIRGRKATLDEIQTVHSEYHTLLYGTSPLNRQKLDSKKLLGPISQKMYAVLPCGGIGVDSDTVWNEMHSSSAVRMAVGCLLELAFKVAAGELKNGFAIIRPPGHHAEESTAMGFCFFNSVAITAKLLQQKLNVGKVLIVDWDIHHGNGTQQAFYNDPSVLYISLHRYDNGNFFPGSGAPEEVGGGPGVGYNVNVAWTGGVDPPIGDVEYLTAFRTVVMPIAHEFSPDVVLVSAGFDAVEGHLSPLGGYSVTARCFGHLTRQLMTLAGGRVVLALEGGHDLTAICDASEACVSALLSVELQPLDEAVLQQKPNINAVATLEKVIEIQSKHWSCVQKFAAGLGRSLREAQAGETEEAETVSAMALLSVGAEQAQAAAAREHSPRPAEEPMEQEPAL
Data set [1] addresses T2, Protein deacetylase HDAC6 (Homo sapiens, UniProt Q9UBN7).
T2 sequence (Q9UBN7 whole entry): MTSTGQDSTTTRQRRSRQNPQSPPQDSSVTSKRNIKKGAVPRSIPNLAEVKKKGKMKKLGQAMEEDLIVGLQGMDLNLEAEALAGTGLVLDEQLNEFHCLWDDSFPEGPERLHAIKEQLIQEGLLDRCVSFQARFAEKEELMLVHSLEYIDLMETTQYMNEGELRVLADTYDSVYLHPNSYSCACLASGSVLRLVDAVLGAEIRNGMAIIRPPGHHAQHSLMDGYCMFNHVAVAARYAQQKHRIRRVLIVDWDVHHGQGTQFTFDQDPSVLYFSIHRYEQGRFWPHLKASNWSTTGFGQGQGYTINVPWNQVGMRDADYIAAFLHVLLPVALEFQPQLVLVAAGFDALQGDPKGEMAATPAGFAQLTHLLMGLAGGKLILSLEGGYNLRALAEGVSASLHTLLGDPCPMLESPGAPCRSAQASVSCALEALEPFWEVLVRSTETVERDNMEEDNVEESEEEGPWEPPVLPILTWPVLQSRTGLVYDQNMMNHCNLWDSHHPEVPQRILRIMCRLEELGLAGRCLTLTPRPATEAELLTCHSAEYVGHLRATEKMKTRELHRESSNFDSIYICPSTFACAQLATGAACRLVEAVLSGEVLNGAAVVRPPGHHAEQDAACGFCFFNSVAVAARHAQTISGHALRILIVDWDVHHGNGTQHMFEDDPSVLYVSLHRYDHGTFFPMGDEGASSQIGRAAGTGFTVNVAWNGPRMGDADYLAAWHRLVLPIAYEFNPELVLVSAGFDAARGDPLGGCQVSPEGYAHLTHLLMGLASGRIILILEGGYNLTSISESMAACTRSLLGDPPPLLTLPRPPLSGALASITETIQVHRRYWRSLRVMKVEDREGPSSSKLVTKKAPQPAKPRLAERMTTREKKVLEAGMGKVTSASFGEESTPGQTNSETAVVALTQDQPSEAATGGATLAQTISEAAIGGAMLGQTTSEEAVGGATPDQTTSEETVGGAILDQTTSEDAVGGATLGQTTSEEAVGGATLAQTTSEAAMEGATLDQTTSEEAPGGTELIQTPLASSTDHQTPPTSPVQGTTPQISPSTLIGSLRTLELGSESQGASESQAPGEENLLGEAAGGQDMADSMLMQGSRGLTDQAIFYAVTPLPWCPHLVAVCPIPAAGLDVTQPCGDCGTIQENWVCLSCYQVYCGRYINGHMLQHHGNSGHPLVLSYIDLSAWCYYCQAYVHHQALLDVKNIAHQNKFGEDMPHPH
The data set can be described thus: Inhibition of HDAC6.

The target of a further data set is Histone deacetylase 9 (Homo sapiens, UniProt Q9UKV0). In words: Inhibition of HDAC9.
Histone deacetylase 9, sequence (Q9UKV0 whole entry): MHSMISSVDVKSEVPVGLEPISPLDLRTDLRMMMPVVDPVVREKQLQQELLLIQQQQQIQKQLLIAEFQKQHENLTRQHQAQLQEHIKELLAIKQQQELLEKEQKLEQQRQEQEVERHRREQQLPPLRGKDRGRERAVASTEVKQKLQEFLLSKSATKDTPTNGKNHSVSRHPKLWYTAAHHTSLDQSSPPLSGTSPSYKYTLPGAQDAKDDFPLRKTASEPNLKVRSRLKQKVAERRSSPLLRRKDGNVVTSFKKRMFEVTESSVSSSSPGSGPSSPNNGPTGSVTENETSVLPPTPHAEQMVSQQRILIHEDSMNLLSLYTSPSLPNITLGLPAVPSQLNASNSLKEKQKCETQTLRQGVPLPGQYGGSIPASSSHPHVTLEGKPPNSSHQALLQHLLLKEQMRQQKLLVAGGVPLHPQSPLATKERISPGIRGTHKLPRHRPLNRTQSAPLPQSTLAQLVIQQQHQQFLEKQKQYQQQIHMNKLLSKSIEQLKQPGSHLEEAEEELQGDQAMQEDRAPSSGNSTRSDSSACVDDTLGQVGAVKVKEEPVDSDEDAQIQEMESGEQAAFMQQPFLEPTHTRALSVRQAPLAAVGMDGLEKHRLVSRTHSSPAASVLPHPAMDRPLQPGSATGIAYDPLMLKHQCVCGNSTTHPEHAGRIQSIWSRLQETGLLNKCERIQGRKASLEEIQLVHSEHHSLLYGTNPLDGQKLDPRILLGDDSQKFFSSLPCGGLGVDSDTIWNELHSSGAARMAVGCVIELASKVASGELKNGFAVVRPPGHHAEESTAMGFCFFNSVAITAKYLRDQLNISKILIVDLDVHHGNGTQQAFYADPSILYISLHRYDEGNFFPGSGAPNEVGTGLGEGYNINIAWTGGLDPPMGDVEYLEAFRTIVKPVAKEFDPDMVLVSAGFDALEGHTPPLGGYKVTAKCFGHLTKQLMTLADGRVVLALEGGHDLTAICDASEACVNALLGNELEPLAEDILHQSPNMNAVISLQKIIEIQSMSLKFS
Another data set deals with T3, Histone deacetylase 11 (Homo sapiens, UniProt Q96DB2).
T3 sequence (Q96DB2 whole entry): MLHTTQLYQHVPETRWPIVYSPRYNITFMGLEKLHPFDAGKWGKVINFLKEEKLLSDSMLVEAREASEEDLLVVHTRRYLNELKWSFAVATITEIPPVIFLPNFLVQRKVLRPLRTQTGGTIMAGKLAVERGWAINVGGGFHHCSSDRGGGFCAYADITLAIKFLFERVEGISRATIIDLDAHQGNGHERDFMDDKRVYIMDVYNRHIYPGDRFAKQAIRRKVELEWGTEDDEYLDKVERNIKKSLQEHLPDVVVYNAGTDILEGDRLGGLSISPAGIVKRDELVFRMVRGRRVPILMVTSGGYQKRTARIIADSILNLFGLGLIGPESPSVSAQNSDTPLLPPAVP
In words: Inhibition of HDAC11.

In another data set the test system is A2780. In words: Antiproliferative activity against human A2780 cells. The format is functional, cell-based.
In data set [2] the test system is PC-3. The data set can be described thus: Antiproliferative activity against human PC3 cells. It is filed as functional, cell-based.
Data set [3] in a line: Thermodynamic solubility at pH 7.4. It is filed as physicochemical. The conditions noted are these: buffer, read-out: Therm_solubility.
The nature of data set [4]: Half life in rat liver microsome. The conditions noted are these: liver microsomes. It is filed as ADME. On the technique in general: Liver microsomes are a subcellular fraction often used to study metabolism.
A short description of data set [5]: Half life in mouse liver microsome. It is filed as ADME. The conditions noted are these: liver microsomes.
Data set [6] in a line: Octanol-water distribution coefficient, log D of the compound. The format is physicochemical.
In a further data set the test system is Ramos. In words: Antiproliferative activity against human Ramos cells. It is filed as functional, cell-based.
Data set [7] is described as follows: Apparent permeability from apical to basolateral side of Caco-2 cells. The format is ADME, cell-based. The conditions noted are these: human. On the technique in general: Passage across Caco-2 layers is used to estimate intestinal permeability.
Data set [8] is described as follows: Volume of distribution at steady state in mouse at 10 mg/kg, iv. The format is ADME, organism-based. More on the design: dose 10 mg/kg, route intravenous. The conditions noted are these: in vivo, read-out: Vdss.
Data set [9] in a line: Toxicity in human PC3 cells xenografted nude mouse. The format is organism-based, PC-3. The conditions noted are these: in vivo. In general terms: Xenograft models place foreign cells or tissue in a host animal.
In the next data set the test system is HCT-116. The data set can be described thus: Antitumor activity against human HCT116 cells xenografted in BALB/c mouse at 100 mg/kg, po after 21 days. The conditions noted are these: HCT-116, 504 h, read-out: TGI. The format is functional.
In data set [10] the test system is PC-3. In words: Antitumor activity against human PC3 cells xenografted in nude mouse assessed as inhibition of tumor growth at 200 mg/kg, ip administered for 21 days measured or day 22. The format is functional. Particulars: PC-3, ip, route intraperitoneal, read-out: TGI.
For data set [11], the system named is PC-3. In words: animal or person. The format is functional, Homo sapiens. Particulars: Mus musculus, PC-3, ip, route intraperitoneal, read-out: TGI.
The next data set relates to Mus musculus. The data set can be described thus: Toxicity in human HCT116 cells xenografted BALB/c mouse at 200 mg/kg, po. The format is organism-based, HCT-116. Also on record: dose 200 mg/kg, route oral. The conditions noted are these: in vivo.
A short description of data set [12]: Cmax in mouse plasma at 50 mg/kg, po. More on the design: dose 50 mg/kg, route oral. It is filed as ADME, organism-based.
A further data set has as its target Histone deacetylase 1 (Homo sapiens, UniProt Q13547).

Molecules are shown by their SMILES. ≈ marks a conversion by molar mass, not a printed value. Where only a bound is given, the exact number is not on record here.

As usually defined, the IC50 is the concentration at which inhibition is half-maximal. A high value points to weaker potency in that assay. As usually defined, the Ki is the dissociation constant of the complex between target and ligand, obtained from inhibition or displacement. A higher Ki goes with a looser hold on the target. What is called half-life is how long it takes for the measured level to halve. What is called logD is lipophilicity at a set pH, counting ionised and neutral species. A low value points to a more hydrophilic compound. As usually defined, the Papp A→B is the apparent permeability from the apical to the basolateral side of a cell layer. The term Cmax denotes the highest concentration seen after dosing.

Histone deacetylase 1, sequence (Q13547 whole entry): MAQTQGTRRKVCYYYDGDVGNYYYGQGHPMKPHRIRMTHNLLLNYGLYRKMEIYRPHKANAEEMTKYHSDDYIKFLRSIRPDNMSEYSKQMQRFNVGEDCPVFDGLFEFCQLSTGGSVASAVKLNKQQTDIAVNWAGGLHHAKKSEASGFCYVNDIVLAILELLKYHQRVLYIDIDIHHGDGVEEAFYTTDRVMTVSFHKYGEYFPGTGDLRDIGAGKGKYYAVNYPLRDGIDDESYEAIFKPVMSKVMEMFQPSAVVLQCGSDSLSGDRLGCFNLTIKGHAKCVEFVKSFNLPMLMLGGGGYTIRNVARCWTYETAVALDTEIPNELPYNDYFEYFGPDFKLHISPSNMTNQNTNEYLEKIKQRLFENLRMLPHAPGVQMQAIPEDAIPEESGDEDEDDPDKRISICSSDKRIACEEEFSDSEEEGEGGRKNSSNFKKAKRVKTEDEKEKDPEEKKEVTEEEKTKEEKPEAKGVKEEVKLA

`O=C(CCCCCNC(=O)NC(=O)c1ccccc1)NO`: the concentration for half-maximal inhibition (IC50) at Histone deacetylase 8 amounted to 608 nM; in the data set on A2780, 700 nM; in the data set on PC-3 [2], 740 nM; in the data set on Ramos, 460 nM; at Histone deacetylase 1 it was 2210 nM. The Ki at Histone deacetylase 8 worked out at 252 nM; at Histone deacetylase 4, 20 nM; at Histone deacetylase 5 it was 46 nM; in [1], 7 nM; at Histone deacetylase 9 it was 55 nM; on Histone deacetylase 11, 39 nM. The solubility thermodynamic in data set [3] came out at 526 µg/mL (≈ 1790 µM). The half-life was greater than 60 min in [4] and greater than 30 min in [5]. The logD in data set [6] came to 0.75. In addition, the apparent permeability from apical to basolateral (Papp A→B) in data set [7] is 3.12 ×10⁻⁶ cm/s. For the same compound, the Vd in [8] came to 2.16 L/kg. Moreover, in [9], the MTD was found to be 200 mg/kg. The inhibition in vivo at 100 mg/kg in the data set on HCT-116 amounted to 80%. In addition, the inhibition in vivo at 200 mg/kg with PC-3 [10] worked out at 73%. Also, in the data set on PC-3 [11], the inhibition in vivo at 160 mg/kg came to 57%. Further, the Activity result with Mus musculus is listed as “Toxic”. This compound also showed a peak concentration (Cmax) in data set [12] of 22.4 µM.

Values taken from ChEMBL document CHEMBL1155491, “Acylurea connected straight chain hydroxamates as novel histone deacetylase inhibitors: Synthesis, SAR, and in vivo antitumor activity” (Bioorg Med Chem Lett, 2010).
